pIC50: −log10 of the molar value. A value given as a limit tells only on which side of the number the result lay.

This test has as its target T1, SARM1 (50-724) (Homo sapiens, UniProt Q6SZW1).
T1 construct: Purified SARM1 (50-724) with a final concentration of 2 nM was pre-incubated with a test compound
T1 sequence (Q6SZW1 50-724): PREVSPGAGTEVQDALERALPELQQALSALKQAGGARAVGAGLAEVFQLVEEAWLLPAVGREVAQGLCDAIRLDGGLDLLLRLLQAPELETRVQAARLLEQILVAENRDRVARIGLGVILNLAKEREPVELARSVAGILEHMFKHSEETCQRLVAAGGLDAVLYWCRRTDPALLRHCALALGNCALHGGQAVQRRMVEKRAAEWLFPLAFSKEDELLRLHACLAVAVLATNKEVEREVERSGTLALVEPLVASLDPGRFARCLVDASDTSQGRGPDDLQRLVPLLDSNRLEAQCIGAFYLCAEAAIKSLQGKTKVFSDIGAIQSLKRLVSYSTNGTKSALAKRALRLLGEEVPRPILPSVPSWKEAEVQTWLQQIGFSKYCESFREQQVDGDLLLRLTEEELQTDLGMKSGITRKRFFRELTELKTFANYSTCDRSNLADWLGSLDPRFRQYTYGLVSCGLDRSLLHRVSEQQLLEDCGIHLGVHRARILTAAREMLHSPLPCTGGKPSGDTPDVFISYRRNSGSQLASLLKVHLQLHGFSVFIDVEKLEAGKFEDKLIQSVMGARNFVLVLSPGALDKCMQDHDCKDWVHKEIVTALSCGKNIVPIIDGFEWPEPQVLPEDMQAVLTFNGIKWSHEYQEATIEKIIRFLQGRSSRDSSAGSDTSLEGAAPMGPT
Description: SARM1 (50-724) enzymatic assay (LC-MS/MS). Format: biochemical. Conditions: Purified SARM1 (50-724) 2 nM, NMN as activator, NAD+ as substrate, 1 h at room temperature, read-out: IC50 (SARM1 inhibitory activity). An outline of the steps: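 Human SARM1 (50-724), 2 nM, pre-incubated 15 min at room temperature with compound in Dulbecco's PBS. Reaction started with 200 µM NMN (activator) plus […] NAD^+ substrate, run 1 h at room temperature, quenched with 70% acetonitrile. Turnover quantified by LC-MS/MS; IC50 reported.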
`Cn1ncc(Cl)c1-c1ccnnc1-c1nc2cc(C(F)(F)F)ccc2[nH]1` [Compound 399, 2-(4-(4-chloro-1-methyl-1H-pyrazol-5-yl)pyridazin-3-yl)-5-(trifluoromethyl)-1H-benzo[d]imidazole]: the pIC50 was no less than 7.00.
As to `CS(=O)(=O)Cc1nnc(-c2cc3cc(C(F)(F)F)ccc3[nH]2)n1-c1cnccc1C(F)(F)F` [Compound 380, 2-(5-((methylsulfonyl)methyl)-4-(4-(trifluoromethyl)pyridin-3-yl)-4H-1,2,4-triazol-3-yl)-5-(trifluoromethyl)-1H-indole], the pIC50 was no less than 7.00.
As to `OCC1(c2cc(F)c3[nH]c(-c4nncn4-c4cnccc4C(F)(F)F)nc3c2)CC1` [Compound 441, (1-(7-fluoro-2-(4-(4-(trifluoromethyl)pyridin-3-yl)-4H-1,2,4-triazol-3-yl)-1H-benzo[d]imidazol-5-yl)cyclopropyl)methanol], the pIC50 is no less than 7.00.
For `Cc1ccc2[nH]c(-c3ccc(C(N)=O)n3C3CCCC3)nc2c1` [Compound 24, 1-cyclopentyl-5-(5-methyl-1H-1,3-benzodiazol-2-yl)pyrrole-2-carboxamide], the pIC50 is less than 6.00.
The value for `Fc1cc(C2(F)CC2)cc2nc(-c3nnccc3-c3nnccc3C(F)(F)F)[nH]c12` [Compound 466, 7-fluoro-5-(1-fluorocyclopropyl)-2-(4-(trifluoromethyl)-[3,4′-bipyridazin]-3′-yl)-1H-benzo[d]imidazole] was no less than 7.00; that for `FC(F)(F)c1ccc2[nH]c(-c3ncncc3-c3cccc(Cl)c3Cl)nc2c1` [Compound 310, 2-(5-(2,3-dichlorophenyl)pyrimidin-4-yl)-5-(trifluoromethyl)-1H-benzo[d]imidazole] was less than 6.00.
On to `CC(C)(O)CCOc1ccc(OC(F)(F)F)c(-n2cnnc2-c2nc3cc(C(F)(F)F)ccc3[nH]2)n1` [Compound 256, 2-methyl-4-((5-(trifluoromethoxy)-6-(3-(5-(trifluoromethyl)-1H-benzo[d]imidazol-2-yl)-4H-1,2,4-triazol-4-yl)pyridin-2-yl)oxy)butan-2-ol], for which the pIC50 is no less than 7.00.
For `O=c1nc(-c2nc3cc(C(F)(F)F)ccc3[nH]2)c(-c2cccc(Cl)c2Cl)c[nH]1` [Example 54], the pIC50 is 6.30 to 7.00.
Consider `FC(F)(F)Oc1ccc2[nH]c(-c3nncn3-c3cccc(Cl)c3Cl)nc2c1` [Example 132, 2-(4-(2,3-dichlorophenyl)-4H-1,2,4-triazol-3-yl)-5-(trifluoromethoxy)-1H-benzo[d]imidazole], for which the pIC50 was no less than 7.00.
Under `FC(F)(F)c1ccc2[nH]c(-c3nncn3-c3cnccc3C(F)(F)F)c(C3CCNC3)c2c1` (stereo not drawn) [Compound 375, 3-(pyrrolidin-3-yl)-5-(trifluoromethyl)-2-(4-(4-(trifluoromethyl)pyridin-3-yl)-4H-1,2,4-triazol-3-yl)-1H-indole] stands 6.30 to 7.00; under `Cn1cc(-c2ccccc2)c(-c2nc3cc(C(F)(F)F)ccc3[nH]2)cc1=O` [Example 86], less than 6.00.
Under `NC(=O)c1cc(Cl)c(Cl)c(-n2cnnc2-c2nc3cc(C(F)(F)F)ccc3[nH]2)c1` [Compound 174, 3,4-dichloro-5-(3-(5-(trifluoromethyl)-1H-benzo[d]imidazol-2-yl)-4H-1,2,4-triazol-4-yl)benzamide] stands no less than 7.00; under `Cc1nnc(-c2nc3cc(C(F)(F)F)ccc3[nH]2)n1-c1cccc(Cl)c1Cl` [Example 87, 2-(4-(2,3-dichlorophenyl)-5-methyl-4H-1,2,4-triazol-3-yl)-5-(trifluoromethyl)-1H-benzo[d]imidazole], no less than 7.00.
As for `Fc1cc(OCC(F)F)cc2nc(-c3nncn3-c3cnccc3C(F)(F)F)[nH]c12` [Compound 331, 5-(2,2-difluoroethoxy)-7-fluoro-2-(4-(4-(trifluoromethyl)pyridin-3-yl)-4H-1,2,4-triazol-3-yl)-1H-benzo[d]imidazole], the pIC50 is no less than 7.00.
With `FC(F)(F)c1ccc2[nH]c(-c3nncn3-c3cccc(Cl)c3Cl)nc2c1` [Example 15, 2-[4-(2,3-dichlorophenyl)-1,2,4-triazol-3-yl]-5-(trifluoromethyl)-1H-benzimidazole], the pIC50 was no less than 7.00.
For `FC(F)(F)c1ccc2[nH]c(-n3nncc3-c3cccc(Cl)c3Cl)nc2c1` [Compound 315, 2-(5-(2,3-dichlorophenyl)-1H-1,2,3-triazol-1-yl)-5-(trifluoromethyl)-1H-benzo[d]imidazole], the pIC50 was no less than 7.00.
The value for `FC(F)(F)c1ccc2[nH]c(-c3nnc(CN4CCC4)n3-c3cccc(Cl)c3Cl)nc2c1` [Example 125] was no less than 7.00; that for `FC(F)(F)Oc1cnccc1-n1cnnc1-c1nc2cc(C(F)(F)F)ccc2[nH]1` [Compound 190] was no less than 7.00.
`Cc1ccc2[nH]c(-c3nncn3C3CCCC3)nc2c1` [Example 1, 2-(4-cyclopentyl-4H-1,2,4-triazol-3-yl)-5-methyl-1H-benzo[d]imidazole]: the pIC50 was less than 6.00.
`Cc1ccc2[nH]c(-c3ncccc3C3CCCC3)nc2c1` [Compound 7, 2-(3-cyclopentylpyridin-2-yl)-5-methyl-1H-benzo[d]imidazole]: the pIC50 was less than 6.00.
In the case of `FC(F)(F)Oc1ccc(OC2COC2)cc1-n1cnnc1-c1nc2cc(C(F)(F)F)ccc2[nH]1` [Compound 271, 2-(4-(5-(oxetan-3-yloxy)-2-(trifluoromethoxy)phenyl)-4H-1,2,4-triazol-3-yl)-5-(trifluoromethyl)-1H-benzo[d]imidazole], the pIC50 is no less than 7.00.
On to `Cc1ccc2[nH]c(-c3cccn3C3CCCC3)nc2c1` [Compound 6, 2-(1-cyclopentylpyrrol-2-yl)-5-methyl-1H-benzimidazole], for which the pIC50 was 6.30 to 7.00.
Take `CCOC(=O)C1(c2ccc3[nH]c(-c4nncn4-c4cccc(Cl)c4Cl)nc3c2)CCC1` [Example 129]: the pIC50 is no less than 7.00.
As for `CC(Cc1nccs1)c1cc(F)c2[nH]c(-c3nncn3-c3cnccc3C(F)(F)F)nc2c1` (stereo not drawn) [Compound 465, 2-(2-(7-fluoro-2-(4-(4-(trifluoromethyl)pyridin-3-yl)-4H-1,2,4-triazol-3-yl)-1H-benzo[d]imidazol-5-yl)propyl)thiazole], the pIC50 is no less than 7.00.
With `FC(F)(F)c1ccc2[nH]c(-c3nncn3-c3cnccc3C(F)(F)F)c(-c3ncccn3)c2c1` [Compound 428, 3-pyrimidin-2-yl-5-(trifluoromethyl)-2-[4-[4-(trifluoromethyl)-3-pyridyl]-1,2,4-triazol-3-yl]-1H-indole], the pIC50 was no less than 7.00.
Consider `CC(C)(O)c1ccc2[nH]c(-c3nnccc3-c3cnccc3C(F)(F)F)nc2c1` [Compound 323], for which the pIC50 was no less than 7.00.
Take `CC(F)(F)c1ccncc1-n1cnnc1-c1nc2cc(C(F)(F)F)ccc2[nH]1` [Compound 260, 2-(4-(4-(1,1-Difluoroethyl)pyridin-3-yl)-4H-1,2,4-triazol-3-yl)-5-(trifluoromethyl)-1H-benzo[d]imidazole]: the pIC50 is no less than 7.00.
Under `Cc1ccc2[nH]c(C3=C(C4CCCC4)C(=O)OC3)nc2c1` [Compound 8, 3-Cyclopentyl-4-(5-methyl-1H-benzo[d]imidazol-2-yl)furan-2(5H)-one] stands less than 6.00; under `Oc1ccc(C(F)(F)F)c(-n2cnnc2-c2nc3cc(C(F)(F)F)ccc3[nH]2)c1` [Compound 240, 4-(trifluoromethyl)-3-(3-(5-(trifluoromethyl)-1H-benzo[d]imidazol-2-yl)-4H-1,2,4-triazol-4-yl)phenol], no less than 7.00.
Turning to `FC(F)(F)c1cnc2[nH]c(-c3nncn3-c3cnccc3C(F)(F)F)cc2c1` [Compound 287, 5-(trifluoromethyl)-2-(4-(4-(trifluoromethyl)pyridin-3-yl)-4H-1,2,4-triazol-3-yl)-1H-pyrrolo[2,3-b]pyridine], the pIC50 is no less than 7.00.
In the case of `CCC(=O)c1cc(F)c2[nH]c(-c3nncn3-c3cnccc3C(F)(F)F)nc2c1` [Compound 452, 1-(4-fluoro-2-(4-(4-(trifluoromethyl)pyridin-3-yl)-4H-1,2,4-triazol-3-yl)-1H-benzo[d]imidazol-6-yl)propan-1-one], the pIC50 was no less than 7.00.
The value for `[2H]c1cncc(-n2c([2H])nnc2-c2nc3c(F)c(C4([2H])CC4)ccc3[nH]2)c1C(F)(F)F` [Compound 372, 5-(cyclopropyl-1-d)-4-fluoro-2-(4-(4-(trifluoromethyl)pyridin-3-yl-5-d)-4H-1,2,4-triazol-3-yl-5-d)-1H-benzo[d]imidazole] was no less than 7.00.
Turning to `COc1cc(F)c2[nH]c(-c3nncn3-c3cnccc3C(F)(F)F)nc2c1` [Compound 328, 7-fluoro-5-methoxy-2-(4-(4-(trifluoromethyl)pyridin-3-yl)-4H-1,2,4-triazol-3-yl)-1H-benzo[d]imidazole], the pIC50 is no less than 7.00.
